Results on 86 molecules are retold here after a melting point compilation (Tetko et al.; mined from patent text by program, amines drawn as free bases though some values may be those of a salt).

Each structure is given as a SMILES string. A value given as a limit tells only on which side of the number the result lay.

By melting point is commonly meant the temperature of the solid-liquid transition. Regarding `CC(C)(O)CCCCCc1ccc(CCc2ccc(O)c(CO)c2)cc1`, the melting point is 110 to 111 °C.

Take `CCCc1c(OCCOCCOCCOc2ccc3ccc(OCC(=O)O)cc3c2C(C)=O)ccc(C(C)=O)c1O`: the melting point lay in the range of 110 to 111 °C. Then `CCOP(=O)(CC(=O)NNc1nc2ccc(C(F)(F)F)cc2n(OCc2ccccc2)c1=O)OCC`, with 163 to 166 °C; and `COc1ccc2ccc(I)cc2c1`, with 116 °C; and `CCCCCCCCCCNS(=O)(=O)c1ccc(OC)cc1`, with 53 to 54.5 °C. Then `NS(=O)(=O)c1nnc(NC(=O)c2cnn3c(C(F)F)cc(-c4ccc(C(F)(F)F)cc4)nc23)s1`, with 284 °C. Then `COc1ccc(-c2cc(=O)n(-c3ccccn3)nc2C)cc1`, with 156 to 157 °C; and `COC(=O)C1=C(C)NC(CF)=C(C(=O)OC)C1c1c(F)c(F)c(F)c(F)c1F` (stereo unspecified), with 148 to 150 °C. On to `CCc1c(O)c(=O)ccn1CCOC(=O)C(C)(C)C`, for which the melting point is 113 to 115 °C. For the molecule `FC(F)(F)c1ccccc1-c1ccnc2ncnn12`, the melting point fell in the range of 149 to 151 °C. As for `O=C(c1ccc(-c2ccsc2)cc1Cl)c1cccc2c1Nc1ncccc1CN2`, the figure is 125 to 130 °C. Regarding `CCCn1cc(C(=O)OCC)c(C(=O)OCC)c1N1C(=O)c2ccccc2C1=O`, the melting point fell in the range of 100 to 101 °C. As for `Cc1cc(F)ccc1C(O)(Cc1nnnn1C)c1ccc(F)cc1C`, the figure is 186 to 188 °C; as for `COc1cccc2sc(NC(=O)CO)nc12`, 193 to 195 °C. Then `Nn1c(C(F)(F)F)ccc(-c2ccc(Cl)cc2Cl)c1=O`, with 98 to 100 °C; and `COc1cc2c(cc1OC)C(O)=C(c1cc(OCc3ccccc3)ccc1[N+](=O)[O-])C2=O`, with 120 °C.

Consider `O=S1(=O)NCN(C2CC2)c2ccc(C(F)(F)F)cc21`, for which the melting point fell in the range of 155 to 157 °C. Take `CC(C)NS(=O)(=O)c1cccc(NC(=O)c2cnn3c(C(F)(F)F)cc(-c4ccc(C(F)(F)F)cc4)nc23)c1`: the melting point worked out at 222 °C. Then `Cc1ccc(S(=O)(=O)Oc2cccc3c2CCCN3)cc1`, with 112 to 113 °C; and `CC(=Cc1c2n(c3ccncc13)CCC2)[N+](=O)[O-]`, with 141 to 142 °C; and `CS(=O)(=O)N1CC2(CCN(C(=O)Nc3cnc(-c4ccccc4)cn3)CC2)c2ccccc21`, with 201 to 203 °C. As for `O=Cc1ccc(-c2ccc3ncnc(Nc4ccc(OCc5cccc(F)c5)c(Cl)c4)c3c2)o1`, the figure is 230 to 234 °C; as for `NS(=O)(=O)c1ccc(Nc2nc(OCC3CCCCC3)c3[nH]cnc3n2)cc1`, 152 to 154 °C. `O=C(O)CN(Cc1ccccc1)C(=S)CCc1nc2c(F)c(F)cc(F)c2s1` yielded a melting point of 138 to 140 °C. `Nc1ccc2sc(-c3cccnc3)nc2c1` registered a melting point of 189 to 196 °C. As for `CC(=O)Nc1cc(F)ccc1C(=O)NCCN1CCC(O)(c2ccc(Cl)cc2)CC1`, the figure is 175 °C; as for `CCn1c(N)c(-c2nccn2COCC[Si](C)(C)C)c(=O)c2ccc(-c3ccc(CC(=O)O)cc3)nc21`, 220 °C; as for `CCCCC#CCCOc1ccc(C=O)cc1OC`, 64.5 to 65.5 °C.

Take `CCc1nc2c(N)nc3cc(-c4cnc5ccccc5c4)cnc3c2n1CC(C)(C)O`: the melting point was above 270 °C. Regarding `O=C(O)CCC(=O)Nc1cccc2ccccc12`, the melting point lay in the range of 167 to 169 °C.

Consider `COC(N)=CC(=NC#N)OC`, for which the melting point was in the range of 116 to 121 °C.

As to `CCON=C(c1ccccc1COc1ccccc1)n1cncn1`, the melting point was 78.5 to 80.5 °C. As for `Cc1cc(C#N)ccc1N1CCOCC1`, the figure is 85 to 86 °C. In turn, `CC(C)OP(=O)(/C=C/CCn1cnc2c(Cl)nc(N)nc21)OC(C)C` gave a melting point of 150 °C. Then `C[C@H]1CC[C@H](Nc2nccc(-n3ncc4c([N+](=O)[O-])cccc43)n2)CC1`, with 254 to 255 °C; and `COC(=O)C1=C(O)c2c(c3cc(OC)ccc3n2C)S(=O)(=O)N1`, with 225 to 226 °C. As for `COc1ccc(Cn2c(=O)cc(C(F)(F)F)n(C)c2=O)cc1`, the figure is 79 to 80 °C. Then `CC(O)(CCN)c1ccc(-c2ccc(F)cc2)cc1` (stereo unspecified), with 144 to 146 °C; and `CCOC(=O)C1=C(COCc2nnn(CCNS(C)(=O)=O)n2)NC(C)=C(C(=O)OC)C1c1cccc(Cl)c1Cl` (stereo unspecified), with 245 to 247 °C.

Take `CN(C(=O)c1ccccc1N(CC(=O)N1CCCC(C)(C)C1)C(=O)CN1C(=O)c2ccccc2C1=O)c1ccccc1`: the melting point was 180 °C. Then `CCCCOCCOc1ccc(-c2ccc3c(c2)C=C(C(=O)Nc2ccc(S(=O)Cc4cncn4CCC)cc2)CCCN3CC(C)C)cc1` (single isomer, unassigned; (-)), with 120 to 122 °C.

As for `O=C(O)c1cc(OC(F)(F)F)ccc1[N+](=O)[O-]`, the melting point was in the range of 90 to 93 °C. In turn, `C=CCC(C(=O)O)(c1ccccc1)c1ccccc1` came in with a melting point of 134 to 137 °C. Then `CCOC(=O)C(CC(=O)c1ccc(OC)cc1)(NC(C)=O)C(=O)OCC`, with 120 to 122 °C; and `COc1ccc(NC(=O)NCc2ccc(-n3c(-c4cccnc4N)nc4cccnc43)cc2)cc1`, with 224 to 226 °C. As for `Cc1cc(CNC(=O)c2nc3n(c(=O)c2OCc2ccccc2)CCN3c2ccccc2)ccc1F`, the figure is 147 °C.

Molecule `CN1Cc2c(CO)ncn2-c2ccccc2C1=O` came in with a melting point of 219 to 221 °C. `Cc1ccccc1-c1ccc2ccccc2c1C(=O)N(C)C` showed a melting point of 108 to 109 °C.

`O=C(NC(CC12CC3CC(CC(C3)C1)C2)NC(=N[N+](=O)[O-])Nc1cccnc1)c1ccc(Cl)cc1` (stereo unspecified) yielded a melting point of 219 to 220 °C.

For `CNCCC(O)(c1ccc(Br)cc1)c1ccccn1` (stereo unspecified), the melting point lay in the range of 81 to 88 °C. In turn, `Nc1cnc(-c2ccc(F)cc2)n(CC(=O)NC(Cc2ccccc2)C(=O)c2nc3ccccc3o2)c1=O` (stereo unspecified) returned a melting point of 233 to 236 °C. Then `COC1OC(COCc2ccccc2)C(OCc2ccccc2)C(OCc2ccccc2)C1OCc1ccccc1` (stereo unspecified), with 68 to 69 °C. As for `CCCCCCOc1ccc(C(=O)Nc2ccc(C(=O)O)cc2)cc1C12CC3CC(CC(C3)C1)C2`, the figure is 256 to 257 °C; as for `CCCCc1c(C)[nH]c(C(=O)OCC)c1OCC1CO1` (stereo unspecified), 125 to 127 °C.

`CC1(C)CCC2=C(O1)c1ccccc1C(=O)C2=O`: the melting point lay within 154 to 156 °C. As for `CC1(C)Oc2ccc(S(=O)(=O)c3ccccc3)cc2C2OC21` (stereo unspecified), the figure is 103 to 105 °C.

For `CN1CCN(c2ccc3cnn(C)c3n2)CC1`, the melting point was 106 to 107 °C. In turn, `Fc1cc(F)c2oc(CCC#Cc3ccccn3)nc2c1` yielded a melting point of 93.5 to 94 °C. Then `CC(C)N1C(=O)[C@@H](CC(=O)NCC#N)O[C@H](c2ccccc2Cl)c2cc(Cl)ccc21` (relative stereo), with 216 to 217 °C; and `c1ccc(-c2cnc3nncn3c2)cc1`, with 231 °C. Then `Oc1ccc2c(c1)OCC(c1ccc(F)cc1)C2c1ccc(OCCN2CCCC2)cc1` (stereo unspecified), with 164 to 167 °C; and `CC(=O)NNc1nc(O)nc(-c2ccc(Cl)cc2)n1`, with 250 °C. As for `O=C(NCC1CCCCCC1)c1cc(-c2ccc(Cl)c(C(=O)O)n2)ccc1Cl`, the melting point lay in the range of 189 to 190 °C. As for `CC(C)c1cccc(C(C)C)c1NC(=O)CN1CCN(CCSc2nc3cccc(S(C)=O)c3o2)CC1` (stereo unspecified), the figure is 119 to 120 °C; as for `COc1cc(OC)c2c(=O)cc(-c3ccc(C(F)(F)F)cc3)oc2c1C1CCN(C)C1CO` (stereo unspecified), 114 to 115 °C. Turning to `CC(C)(C)N[C@@H]1CCc2c(ccc(OCc3ccccc3)c2C#N)[C@H]1O` (relative stereo), the melting point is 120 to 122 °C. Then `O=C(c1ccc(F)cc1)C1CCN(CCn2c(=O)[nH]c3ccccc32)CC1`, with 164 °C. For `N#Cc1cc(Br)c(OC(=O)OCI)c(Br)c1`, the melting point lay within 103 to 105 °C.

`C=CCNc1nc(NCC=C)nc(NCCC2CC(C)(C)NC(C)(C)C2)n1` came in with a melting point of 74 to 75 °C.

`COC(=O)C(=O)c1nsc(NC(=O)Oc2ccccc2)n1` showed a melting point of 74 to 79 °C. As for `COC(=O)c1cc(C)c(C(OC(=O)C(C)NS(=O)(=O)c2ccc(C)cc2)c2cc(-n3ccnc3)ccc2C)c(C)c1` (stereo unspecified), the figure is 103 to 105 °C. As for `CN(C)C(=N)c1c(Cl)cc(N=Cc2ccc(N(C)C)cc2F)cc1Cl`, the figure is 127 to 128 °C; as for `Cc1noc(-c2cc(-c3ccccc3)c(=O)n3c2-c2sccc2SCC3)n1`, 183 to 185 °C. As for `CC1(C)[C@H]2CC=C(CCOCC(=O)O)[C@@H]1C2`, the figure is 78 to 80 °C. Molecule `CN(C)CCCn1cc(Br)c2c3c(c(-c4ccccc4Cl)cc21)C(=O)NC3=O` gave a melting point of 160 to 162 °C. As for `CC(CN(C)C)N1c2ccccc2Sc2ccc(C(=O)NCc3cccs3)cc21` (racemic), the figure is 135 °C. As for `COC(=O)C(C)(C)OCc1cc2nc(Cl)ccc2n1S(=O)(=O)c1cccc2ccccc12`, the figure is 108 °C.

`COc1ccc(F)cc1OCC=O`: the melting point lay in the range of 92.5 to 95 °C. As for `N#Cc1c(OCc2ccc(F)cc2F)ccn(Cc2cccc(F)c2)c1=O`, the figure is 187 to 190 °C; as for `N#CCCn1c(C(=O)OCc2ccccc2)cc2ccccc21`, 98 to 100 °C. Then `CCOC(=O)c1cnc(-c2ccccc2)nc1Nc1ccccc1`, with 98 to 100 °C; and `N#Cc1cnc2cc(O)ccc2c1Nc1ccc2cn[nH]c2c1`, with above 250 °C. Then `CCCCC(CC)c1nc2cc(Cl)c(C#N)c(C)n2n1` (stereo unspecified), with 95 to 96 °C; and `O=C1NC(=S)SC1=Cc1ccc(OCc2ccccc2)cc1`, with above 225 °C. The molecule `CNC(Cc1cc(Br)ccc1N)c1ccsc1C` (stereo unspecified) returned a melting point of 72.5 to 74 °C. Then `N#Cc1cn(-c2ccccn2)nc1-c1ccc([N+](=O)[O-])o1`, with 207 to 208 °C.
